In paper PMC9266914, “Broad Spectrum Functional Activity of Structurally Related Monoanionic Au(III) Bis(Dithiolene) Complexes” (International Journal of Molecular Sciences, 2022):
Marks after values point to notes of the source that are not given here.

Test: Cyclic voltammetry
Format: physicochemical
Details: for E1/2 −1/0, first value of cell (anodic peak) / E1/2 −1/0, second value of cell (cathodic peak) / E −2/−1 (reduction of monoanion into dianion) / Epa2 0/+1 / Epc2 0/+1: CH2Cl2, NBu4PF6, Pt, 100 mV.s^−1; for potential difference between the second and the first oxidation potentials: CH2Cl2, NBu4PF6
Source text: The redox properties of the various gold(III) bis(dithiolene) and bis(diselenolene) complexes were investigated by cyclic voltammetry using the same conditions, dichloromethane solutions and NBu4PF6 as supporting electrolyte. Under these conditions, the nature of the counter-ion, Ph4P^+ or Et4N^+, had no influence on the redox properties observed, due to ion exchange with the Bu4N^+ of the supporting electrolyte. Thus, only the result of one monoanion is included in Table 1, even if the two salts were analyzed. For all the investigated monoanionic bis(dithiolene) complexes, three redox processes are observed on the cyclic voltammograms. On the anodic scan, the two oxidation waves correspond to the oxidation of the monoanionic species into the neutral and to the monocationic complex. Most of these complexes had the tendency to deposit on the electrode once oxidized and frequently a strong desorption peak was observed on the reversible scan. This phenomenon occurs essentially for the complex with an exocyclic sulfur atom, [AuSR(=S)]^−1. On the cathodic scan, an irreversible process associated with the reduction in the monoanion into the dianion occurs (Scheme 2). […] The presence of oxygen instead of sulfur makes the oxidation of the monoanionic into the neutral species easier. On the other hand, the presence of electron-withdrawing substituents such as =C(CN)2 induces an anodic shift of the oxidation potentials by 300 mV, compared with the =O derivative, leading to a monoanion which is more difficult to oxidize than the other complexes of the series. […] Indeed, the potential difference between the second and the first oxidation potentials amounts to 470 mV and 410 mV for the =O and the =C(CN)2 derivatives, respectively, while for the =S analogues this value is smaller (170 mV). […] For comparison, we also investigated the redox behavior of Auranofin using the same experimental conditions in CH2Cl2 in the presence of NBu4PF6 as a supporting electrolyte. Using these conditions, upon anodic scan only one irreversible oxidation process is observed at 1.42 V vs. SCE. Therefore, all these monoanionic gold bis(dithiolene) and bis(diselenolene) complexes are easier to oxidize than Auranofin.
All reagents and materials from commercial sources were used without further purification. NMR spectra were recorded at room temperature using CDCl3 unless otherwise stated (Figures S7–S15). Chemical shifts are reported in ppm and ^1H NMR spectra were referenced to residual CHCl3 (7.26 ppm) and ^13C NMR spectra were referenced to CHCl3 (77.2 ppm). Mass spectra were recorded with an Agilent 6510 instrument for organics compounds and with a Thermo-Fisher Q-Exactive instrument for complexes by the Center Régional de Mesures Physiques de l’Ouest, Rennes. Cyclic voltammograms (CV)s were carried out on a 10^−3 M solution of complex in CH2Cl2-[NBu4] [PF6] 0.1 M. CVs were recorded on a Biologic SP-50 instruments at 0.1 Vs^−1 on a platinum disk electrode. Potentials were measured versus KCl Saturated Calomel Electrode (SCE). Column chromatography was performed using silica gel Merck 60 (70–260 mesh). The solvents were purified and dried by standard methods. The proligand 2-SEt(=C(CN2)), [72] and complexes [N][AuSMe(=S)], [73] [N][AuSEt(=S)], [74] [P][AuSEt(=O)], [75] [N][AuSeEt(=S)] [75] and [P][AuSPr(=S)] [76] were synthesized according to the previously reported procedure.

Row | SMILES | E1/2 −1/0, first value of cell (anodic peak) | E1/2 −1/0, second value of cell (cathodic peak) [V vs. SCE] | E −2/−1 (reduction of monoanion into dianion) | Epa2 0/+1 [V vs. SCE] | Epc2 0/+1 [V vs. SCE] | potential difference between the second and the first oxidation potentials [mV]
1 | CCCCn1c2c(sc1=S)[S][Au-]1([S]c3sc(=S)n(CCCC)c3[S]1)[S]2 [[AuSBu(=S)]^−1] | 0.55 V vs. SCE | 0.50 | −0.88 ** V vs. SCE | 0.75 | 0.66 | –
2 | CCN1C(=C(C#N)C#N)SC2=C1[S][Au-]1([S]2)[S]C2=C([S]1)N(CC)C(=C(C#N)C#N)S2 [[AuSEt(=C(CN)2)]^−1] | 0.71 V vs. SCE | 0.66 | – | 1.13 | 1.06 | 410
3 | CCn1c2c(sc1=O)[S][Au-]1([S]c3sc(=O)n(CC)c3[S]1)[S]2 [[AuSEt(=O)]^−1] | 0.42 V vs. SCE | 0.36 | −1.05 ** V vs. SCE | 0.89 | 0.83 | 470
4 | CCn1c2c(sc1=S)[S][Au-]1([S]c3sc(=S)n(CC)c3[S]1)[S]2 [[AuSEt(=S)]^−1] | 0.55 V vs. SCE | 0.49 | −0.90 V vs. SCE | 0.71 | 0.61 | –
5 | CCn1c2c(sc1=[Se])[S][Au-]1([S]c3sc(=[Se])n(CC)c3[S]1)[S]2 [[AuSEt(=Se)]^−1] | 0.40/− ** V vs. SCE | – | −0.80 ** V vs. SCE | – | – | –
6 | Cn1c2c(sc1=S)[S][Au-]1([S]c3sc(=S)n(C)c3[S]1)[S]2 [[AuSMe(=S)]^−1] | 0.51 V vs. SCE | 0.44 | −0.85 V vs. SCE | 0.73 | 0.56 | –
7 | CCCn1c2c(sc1=S)[S][Au-]1([S]c3sc(=S)n(CCC)c3[S]1)[S]2 [[AuSPr(=S)]^−1] | 0.56 V vs. SCE | 0.53 | −0.85 ** V vs. SCE | 0.73 | 0.64 | –
